In patent US11555032B2, “Isoxazole derivatives as FXR agonists and methods of use thereof” (Enanta Pharmaceuticals, Inc., priority 2019, dated 2023):

Each compound was assayed against T1, human FXR (NR1H4) (Homo sapiens, UniProt Q96RI1) (assay: Human FXR (NRIH4) Assay, luciferase reporter). Conditions: CHO reporter cells expressing human NR1H4, luciferase, 22 hours incubation.
T1 construct: host or cells: CHO (Chinese hamster ovary) reporter cells
T1 sequence (Q96RI1 1-486): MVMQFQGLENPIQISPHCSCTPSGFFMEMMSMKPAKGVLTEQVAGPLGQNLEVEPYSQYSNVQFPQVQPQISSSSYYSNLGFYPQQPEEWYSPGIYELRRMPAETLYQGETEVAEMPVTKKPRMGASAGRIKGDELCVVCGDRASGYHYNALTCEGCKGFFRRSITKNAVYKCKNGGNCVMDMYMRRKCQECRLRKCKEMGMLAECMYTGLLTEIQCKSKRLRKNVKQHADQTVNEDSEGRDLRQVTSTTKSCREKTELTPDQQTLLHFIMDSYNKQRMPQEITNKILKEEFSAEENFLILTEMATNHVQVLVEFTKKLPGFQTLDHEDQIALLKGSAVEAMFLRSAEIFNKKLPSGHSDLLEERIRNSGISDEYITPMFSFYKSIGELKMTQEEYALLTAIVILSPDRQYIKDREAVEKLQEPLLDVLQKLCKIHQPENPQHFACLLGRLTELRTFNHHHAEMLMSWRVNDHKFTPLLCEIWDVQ
Format: cell-based
Description: Determination of a ligand mediated Gal4 promoter driven transactivation to quantify ligand binding mediated activation of FXR. FXR Reporter Assay kit purchased from Indigo Bioscience (Catalogue number: IB00601) to determine the potency and efficacy of compound developed by Enanta that can induce FXR activation. The principle application of this reporter assay system is to quantify functional activity of human FXR. The assay utilizes non-human mammalian cells, CHO (Chinese hamster ovary) cells engineered to express human NR1H4 protein (referred to as FXR). Reporter cells also incorporate the cDNA encoding beetle luciferase which catalyzes the substrates and yields photon emission. Luminescence intensity of the reaction is quantified using a plate-reading luminometer, Envision. Reporter Cells include the luciferase reporter gene functionally linked to an FXR responsive promoter. Thus, quantifying changes in luciferase expression in the treated reporter cells provides a sensitive surrogate measure of the changes in FXR activity. EC50 and efficacy (normalize to CDCA set as 100%) is determined by XLFit. The assay is according to the manufacturer's instructions. In brief, the assay was performed in white, 96 well plates using final volume of 100 ul containing cells with different doses of compounds. Retrieve Reporter Cells from −80° C. storage. Perform a rapid thaw of the frozen cells by transferring a 10 ml volume of 37° C. cell recovery medium into the tube of frozen cells. Recap the tube of Reporter Cells and immediately place it in a 37° C. water bath for 5-10 minutes. Retrieve the tube of Reporter Cell Suspension from the water bath. Sanitize the outside surface of the tube with a 70% alcohol swab, and then transfer it into the cell culture hood. Dispense 90 μl of cell suspension into each well of the 96-well Assay Plate. Transfer the plate into 37° C. incubator, allowing the cells adherent to the bottom of the well. Dilute compounds in Dilution Plate (DP), and administrate to cells at Assay Plate (AP). DMSO content of the samples was kept at 0.2%. Cells were incubated for additional 22 hours before luciferase activities were measured. Thirty minutes before intending to quantify FXR activity, remove Detection Substrate and Detection Buffer from the refrigerator and place them in a low-light area so that they may equilibrate to room temperature. Remove the plate's lid and discard all media contents by ejecting it into an appropriate waste container. Gently tap the inverted plate onto a clean absorbent paper towel to remove residual droplets. Cells will remain tightly adhered to well bottoms. Add 100 μl of luciferase detection reagent to each well of the assay plate. Allow the assay plate to rest at room temperature for at least 5 minutes following the addition of LDR. Set the instrument (Envision) to perform a single 5 second “plate shake” prior to reading the first assay well. Read time may be 0.5 second (500 mSec) per well. EC50 and Efficacy (normalize to CDCA set as 100%) is determined by XLFit.
The efficacy was normalized to CDCA set as 100%.

EC50 | SMILES
< 25 nM | O=S(=O)(NC1C2CCC1CC(OCc1c(-c3ccccc3OC(F)(F)F)noc1C1CC1)C2)c1cccc2ccccc12 (stereo not drawn) [Example 9-11]
< 25 nM | O=S(=O)(NC1C2CCC1CC(OCc1c(-c3ccccc3OC(F)(F)F)noc1C1CC1)C2)c1ccc2ccccc2c1 (stereo not drawn) [Example 9-12]
25 to 500 nM | O=S(=O)(NC1C2CCC1CC(OCc1c(-c3ccccc3OC(F)(F)F)noc1C1CC1)C2)c1cccc2cccnc12 (stereo not drawn) [Example 9-13]
< 25 nM | O=S(=O)(NC1C2CCC1CC(OCc1c(-c3ccccc3OC(F)(F)F)noc1C1CC1)C2)c1cccc2cnccc12 (stereo not drawn) [Example 9-14]
< 25 nM | O=S(=O)(NC1C2CCC1CC(OCc1c(-c3ccccc3OC(F)(F)F)noc1C1CC1)C2)c1cccc2ccncc12 (stereo not drawn) [Example 9-15]
< 25 nM | O=S(=O)(NC1C2CCC1CC(OCc1c(-c3ccccc3OC(F)(F)F)noc1C1CC1)C2)c1cccc2ncccc12 (stereo not drawn) [Example 9-16]
25 to 500 nM | CC(C)Oc1ccc(S(=O)(=O)NC2C3CCC2CC(OCc2c(-c4ccccc4OC(F)(F)F)noc2C2CC2)C3)c2ccccc12 (stereo not drawn) [Example 9-17]
< 25 nM | CC(C)Oc1cc(CO)cc2sc(NC3C4CCC3CC(OCc3c(-c5ccccc5OC(F)(F)F)noc3C3CC3)C4)nc12 (stereo not drawn) [Example 10-2]
< 25 nM | CC(C)Oc1cc(C(C)(C)O)cc2sc(NC3C4CCC3CC(OCc3c(-c5ccccc5OC(F)(F)F)noc3C3CC3)C4)nc12 (stereo not drawn) [Example 10]
25 to 500 nM | COC(=O)c1ccc2cc(SC3C4CCC3CC(OCc3c(-c5ccccc5OC(F)(F)F)noc3C3CC3)C4)ccc2c1 [Example 11, methyl 6-(((1R,3r,5S,8s)-3-((5-cyclopropyl-3-(2-(trifluoromethoxy)phenyl)isoxazol-4-yl)methoxy)bicyclo[3.2.1]octan-8-yl)thio)-2-naphthoate]
25 to 500 nM | O=C(O)c1ccc2cc(SC3C4CCC3CC(OCc3c(-c5ccccc5OC(F)(F)F)noc3C3CC3)C4)ccc2c1 [Example 11-2, 6-(((1R,3r,5S,8s)-3-((5-cyclopropyl-3-(2-(trifluoromethoxy)phenyl)isoxazol-4-yl)methoxy)bicyclo[3.2.1]octan-8-yl)thio)-2-naphthoic acid]
25 to 500 nM | COC(=O)c1ccc2cc(S(=O)(=O)C3C4CCC3CC(OCc3c(-c5ccccc5OC(F)(F)F)noc3C3CC3)C4)ccc2c1 [Example 11-3, methyl 6-(((1R,3r,5S,8s)-3-((5-cyclopropyl-3-(2-(trifluoromethoxy)phenyl)isoxazol-4-yl)methoxy)bicyclo[3.2.1]octan-8-yl)sulfonyl)-2-naphthoate]
25 to 500 nM | O=C(O)c1ccc2cc(S(=O)(=O)C3C4CCC3CC(OCc3c(-c5ccccc5OC(F)(F)F)noc3C3CC3)C4)ccc2c1 (stereo not drawn) [Example 11-4]
> 500 nM | CCOC(=O)c1cccc(SC2C3CCC2CC(OCc2c(-c4ccccc4OC(F)(F)F)noc2C2CC2)C3)c1 (stereo not drawn) [Example 11-5]
25 to 500 nM | O=C(O)c1cccc(SC2C3CCC2CC(OCc2c(-c4ccccc4OC(F)(F)F)noc2C2CC2)C3)c1 (stereo not drawn) [Example 11-6]
25 to 500 nM | CCOC(=O)c1cccc(S(=O)(=O)C2C3CCC2CC(OCc2c(-c4ccccc4OC(F)(F)F)noc2C2CC2)C3)c1 (stereo not drawn) [Example 11-7]
> 500 nM | O=C(O)c1cccc(S(=O)(=O)C2C3CCC2CC(OCc2c(-c4ccccc4OC(F)(F)F)noc2C2CC2)C3)c1 (stereo not drawn) [Example 11-8]
25 to 500 nM | COC(=O)c1ccc2nc(SC3C4CCC3CC(OCc3c(-c5ccccc5OC(F)(F)F)noc3C3CC3)C4)sc2c1 (stereo not drawn) [Example 11-9]

EC50 | SMILES
< 25 nM | O=C(O)c1ccc2nc(SC3C4CCC3CC(OCc3c(-c5ccccc5OC(F)(F)F)noc3C3CC3)C4)sc2c1 (stereo not drawn) [Example 11-10]
25 to 500 nM | O=C(O)c1ccc2nc(S(=O)(=O)C3C4CCC3CC(OCc3c(-c5ccccc5OC(F)(F)F)noc3C3CC3)C4)sc2c1 (stereo not drawn) [Example 11-11]
25 to 500 nM | COC(=O)c1ccc(SC2C3CCC2CC(OCc2c(-c4ccccc4OC(F)(F)F)noc2C2CC2)C3)cc1 (stereo not drawn) [Example 11-12]
25 to 500 nM | O=C(O)c1ccc(SC2C3CCC2CC(OCc2c(-c4ccccc4OC(F)(F)F)noc2C2CC2)C3)cc1 (stereo not drawn) [Example 11-13]
25 to 500 nM | COC(=O)c1ccc(S(=O)(=O)C2C3CCC2CC(OCc2c(-c4ccccc4OC(F)(F)F)noc2C2CC2)C3)cc1 (stereo not drawn) [Example 11-14]
25 to 500 nM | O=C(O)c1ccc(S(=O)(=O)C2C3CCC2CC(OCc2c(-c4ccccc4OC(F)(F)F)noc2C2CC2)C3)cc1 (stereo not drawn) [Example 11-15]
25 to 500 nM | CCOC(=O)c1cc(F)c2nc(SC3C4CCC3CC(OCc3c(-c5ccccc5OC(F)(F)F)noc3C3CC3)C4)sc2c1 (stereo not drawn) [Example 11-16]
< 25 nM | O=C(O)c1cc(F)c2nc(SC3C4CCC3CC(OCc3c(-c5ccccc5OC(F)(F)F)noc3C3CC3)C4)sc2c1 (stereo not drawn) [Example 11-17]
> 500 nM | CCOC(=O)c1cc(F)c2nc(S(=O)(=O)C3C4CCC3CC(OCc3c(-c5ccccc5OC(F)(F)F)noc3C3CC3)C4)sc2c1 (stereo not drawn) [Example 11-18]
< 25 nM | O=C(O)c1cccc2nc(SC3C4CCC3CC(OCc3c(-c5ccccc5OC(F)(F)F)noc3C3CC3)C4)cnc12 [Example 12, 2-(((1R,3r,5S,8s)-3-((5-cyclopropyl-3-(2-(trifluoromethoxy)phenyl)isoxazol-4-yl)methoxy)bicyclo[3.2.1]octan-8-yl)thio)quinoxaline-5-carboxylic acid]
> 500 nM | N#Cc1cccc2ncc(NC3C4CCC3CC(OCc3c(-c5ccccc5OC(F)(F)F)noc3C3CC3)C4)nc12 (stereo not drawn) [Example 13-2]
< 25 nM | FC(F)(F)Oc1ccccc1-c1noc(C2CC2)c1CO[C@H]1C[C@H]2CC[C@@H](C1)[C@@H]2Nc1cnc2c(-c3nnn[nH]3)cccc2n1 [Example 13-3, N-((1R,3r,5S,8s)-3-((5-cyclopropyl-3-(2-(trifluoromethoxy)phenyl)isoxazol-4-yl)methoxy)bicyclo[3.2.1]octan-8-yl)-5-(1H-tetrazol-5-yl)quinoxalin-2-amine]
< 25 nM | FC(F)(F)Oc1ccccc1-c1noc(C2CC2)c1COC1CC2CCC(C1)C2Nc1nc2c(C3CC3)cc(-c3nnn[nH]3)cc2s1 (stereo not drawn) [Example 13-5]
< 25 nM | CC(C)Oc1cc(C#N)cc2sc(NC3C4CCC3CC(OCc3c(-c5ccccc5OC(F)(F)F)noc3C3CC3)C4)nc12 (stereo not drawn) [Example 13-6]
< 25 nM | CC(C)Oc1cc(-c2nnn[nH]2)cc2sc(NC3C4CCC3CC(OCc3c(-c5ccccc5OC(F)(F)F)noc3C3CC3)C4)nc12 (stereo not drawn) [Example 13-7]
> 500 nM | CCOC(=O)c1cc(F)c2nc(SC3C4CCC3CC(NCc3c(-c5ccccc5OC(F)(F)F)noc3C3CC3)C4)sc2c1 [Example 14, ethyl 2-(((1R,3r,5S,8s)-3-(((5-cyclopropyl-3-(2-(trifluoromethoxy)phenyl)isoxazol-4-yl)methyl)amino)bicyclo[3.2.1]octan-8-yl)thio)-4-fluorobenzo[d]thiazole-6-carboxylate]
25 to 500 nM | O=C(O)c1cc(F)c2nc(S[C@@H]3[C@@H]4CC[C@H]3C[C@@H](NCc3c(-c5ccccc5OC(F)(F)F)noc3C3CC3)C4)sc2c1 [Example 14-2, 2-(((1R,3r,5S,8s)-3-(((5-cyclopropyl-3-(2-(trifluoromethoxy)phenyl)isoxazol-4-yl)methyl)amino)bicyclo[3.2.1]octan-8-yl)thio)-4-fluorobenzo[d]thiazole-6-carboxylic acid]
25 to 500 nM | COC(=O)c1ccc2nc(SC3C4CCC3CC(NCc3c(-c5ccccc5OC(F)(F)F)noc3C3CC3)C4)[nH]c2c1 (stereo not drawn) [Example 14-3]
